In patent US10329289B2, “6,7-dihydro-5H-pyrrolo[3,4-B]pyridin-5-one allosteric modulators of the M4 muscarinic acetylcholine receptor” (Merck Sharp & Dohme Corp., priority 2015, dated 2019):

molecular target: T1, human M4 muscarinic acetylcholine receptor (Homo sapiens, UniProt P08173); test: human FLIPR-based M4 PAM assay (Ca2+ mobilization, CHO-K1 cells with human M4 receptor and Gαqi5); assay type: cell-based; details: acetylcholine at 20% of maximum response, read-out: M4 PAM IP
T1 construct: expressed in transfected cells; host or cells: CHO-K1
T1 sequence (P08173 1-479): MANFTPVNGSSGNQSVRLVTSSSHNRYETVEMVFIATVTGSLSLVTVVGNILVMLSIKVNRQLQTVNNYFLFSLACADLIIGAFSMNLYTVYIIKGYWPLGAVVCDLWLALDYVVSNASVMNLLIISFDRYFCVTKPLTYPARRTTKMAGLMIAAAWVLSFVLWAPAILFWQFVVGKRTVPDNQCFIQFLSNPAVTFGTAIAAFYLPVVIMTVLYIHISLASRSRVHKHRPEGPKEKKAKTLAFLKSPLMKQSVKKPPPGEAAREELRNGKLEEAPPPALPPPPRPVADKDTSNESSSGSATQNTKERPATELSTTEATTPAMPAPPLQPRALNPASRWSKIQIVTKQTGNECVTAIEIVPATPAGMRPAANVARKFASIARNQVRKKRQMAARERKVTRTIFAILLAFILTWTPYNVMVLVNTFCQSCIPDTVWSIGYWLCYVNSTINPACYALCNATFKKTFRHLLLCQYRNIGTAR
In short: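 CHO-K1 cells stably expressing human M4 and chimeric Gαqi5 were dye-loaded ~1 h at 37 °C and read for Ca2+ fluorescence. Compound followed by acetylcholine at an EC20 (sometimes an EC70 third addition); inflection point from a 4-parameter logistic fit.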

| SMILES | EC50 [nM] |
| --- | --- |
| Cc1cc2c(nc1N1CC[C@@H](Oc3ccc4c(cnn4C)c3)[C@@H](F)C1)[C@H](CO)N(C)C2=O [Example 284, (R)-2-((3S,4R)-3-fluoro-4-((1-methyl-1H-indazol-5-yl)oxy)piperidin-1-yl)-7-(hydroxymethyl)-3,6-dimethyl-6,7-dihydro-5H-pyrrolo[3,4-b]pyridin-5-one] | 4330 |
| CCOc1ccc(OC2CCN(c3nc4c(cc3C)C(=O)N(C)[C@H]4CO)CC2)cn1 [Example 285, (R)-2-(4-((6-ethoxypyridin-3-yl)oxy)piperidin-1-yl)-7-(hydroxymethyl)-3,6-dimethyl-6,7-dihydro-5H-pyrrolo[3,4-b]pyridin-5-one] | 8620 |
| COc1ccc(OC2CCN(c3nc4c(cc3C)C(=O)NC4(C)C)CC2)cn1 [Example 288, 2-(4-((6-Methoxypyridin-3-yl)ox)piperidin-1-yl)-3,7,7-trimethyl-6,7-dihydro-5H-pyrrolo[3,4-b]pyridin-5-one] | 1790 |
| Cc1cc2c(nc1N1CCC(Oc3ccc4c(c3)CN(C)C4)CC1)CNC2=O [Example 290, 3-Methyl-2-(4-((2-methylisoindolin-5-yl)oxy)piperidin-1-yl)-6,7-dihydro-5H-pyrrolo[3,4-b]pyridin-5-one] | 353 |
| COc1ccc(OC2CCN(c3nc4c(cc3CO)C(=O)NC4)CC2)cn1 [Example 301, 3-(Hydroxymethyl)-2-(4-((6-methoxypyridin-3-yl)oxy)piperidin-1-yl)-6,7-dihydro-5H-pyrrolo[3,4-b]pyridin-5-one] | 1140 |
| COc1ccc(OC2CCN(c3nc4c(c(CO)c3C)C(=O)NC4)CC2)cn1 [Example 302, 4-(hydroxymethyl)-2-(4-((6-methoxypyridin-3-yl)oxy)piperidin-1-yl)-3-methyl-6,7-dihydro-5H-pyrrolo[3,4-b]pyridin-5-one] | 819 |
| Cc1c(N2CCC(Oc3ccc4c(c3)COC4)CC2)nc2c(c1CO)C(=O)NC2 [Example 303, 2-(4-((1,3-dihydro-2-benzofuran-5-yl)oxy)piperidin-1-yl)-4-(hydroxymethyl)-3-methyl-6,7-dihydro-5H-pyrrolo[3,4-b]pyridin-5-one] | 302 |
| COc1ccc(OC2CCN(c3nc4c(cc3CF)C(=O)NC4)CC2)cn1 [Example 304, 3-(Fluoromethyl)-2-(4-((6-methoxypyridin-3-yl)oxy)piperidin-1-yl)-6,7-dihydro-5H-pyrrolo[3,4-b]pyridin-5-one] | 1120 |
| COc1ccc(OC2CCN(c3nc4c(cc3C=O)C(=O)NC4)CC2)cn1 [Example 306, 2-(4-((6-Methoxypyridin-3-yl)oxy)piperidin-1-yl)-5-oxo-6,7-dihydro-5H-pyrrolo[3,4-b]pyridine-3-carbaldehyde] | 320 |
| COc1ccc(OC2CCN(c3nc4c(cc3C(F)F)C(=O)NC4)CC2)cn1 [Example 307, 3-(Difluoromethyl)-2-(4-((6-methoxypyridin-3-yl)oxy)piperidin-1-yl)-6,7-dihydro-5H-pyrrolo[3,4-b]pyridin-5-one] | 1310 |

Now those with a lower EC50, led by results:

| EC50 [nM] | SMILES |
| --- | --- |
| 44 | Cc1cc2c(nc1N1CC[C@@H](Oc3ccc4c(cnn4C)c3)[C@@H](F)C1)[C@@H](CO)N(C)C2=O [Example 283, (S)-2-((3S,4R)-3-fluoro-4-((1-methyl-1H-indazol-5-yl)oxy)piperidin-1-yl)-7-(hydroxymethyl)-3,6-dimethyl-6,7-dihydro-5H-pyrrolo[3,4-b]pyridin-5-one] |
| 38 | CCOc1ccc(OC2CCN(c3nc4c(cc3C)C(=O)N(C)[C@@H]4CO)CC2)cn1 [Example 286, (S)-2-(4-((6-ethoxypyridin-3-yl)oxy)piperidin-1-yl)-7-(hydroxymethyl)-3,6-dimethyl-6,7-dihydro-5H-pyrrolo[3,4-b]pyridin-5-one] |
| 156 | C=C1NC(=O)c2cc(C)c(N3CCC(Oc4ccc(OC)nc4)CC3)nc21 [Example 289, 2-(4-((6-Methoxypyridin-3-yl)oxy)piperidin-1-yl)-3-methyl-7-methylene-6,7-dihydro-5H-pyrrolo[3,4-b]pyridin-5-one] |
| 204 | Cc1cc2c(nc1N1CCC(Oc3ccc4c(c3)CCCN4C)CC1)CNC2=O [Example 291, 3-methyl-2-(4-((1-methyl-1,2,3,4-tetrahydroquinolin-6-yl)oxy)piperidin-1-yl)-6,7-dihydro-5H-pyrrolo[3,4-b]pyridin-5-one] |
| 174 | Cc1cc2c(nc1N1CCC(Oc3ccc4c(c3)CN(C)CC4)CC1)CNC2=O [Example 292, 3-methyl-2-(4-((2-methyl-1,2,3,4-tetrahydroisoquinolin-7-yl)oxy)piperidin-1-yl)-6,7-dihydro-5H-pyrrolo[3,4-b]pyridin-5-one] |
| 104 | Cc1cc2c(nc1N1CCC(Oc3ccc4c(c3)OCCN4C)CC1)CNC2=O [Example 293, 3-methyl-2-(4-((4-methyl-3,4-dihydro-2H-benzo[b][1,4]oxazin-7-yl)oxy)piperidin-1-yl)-6,7-dihydro-5H-pyrrolo[3,4-b]pyridin-5-one] |
| 202 | CC(=O)N1Cc2ccc(OC3CCN(c4nc5c(cc4C)C(=O)NC5)CC3)cc2C1 [Example 294, 2-(4-((2-Acetylisoindolin-5-yl)oxy)piperidin-1-yl)-3-methyl-6,7-dihydro-5H-pyrrolo[3,4-b]pyridin-5-one] |
| 137 | CC(=O)N1CCc2ccc(OC3CCN(c4nc5c(cc4C)C(=O)NC5)CC3)cc2C1 [Example 295, 2-(4-((2-acetyl-1,2,3,4-tetrahydro-isoquinolin-7-yl)oxy)piperidin-1-yl)-3-methyl-6,7-dihydro-5H-pyrrolo[3,4-b] pyridin-5-one] |
| 83 | COc1ccc(OC2CCN(c3nc4c(cc3C)C(=O)N(Cc3ccncc3)C4=O)CC2)cn1 [Example 296, 2-(4-((6-Methoxypyridin-3-yl)oxy)piperidin-1-yl)-3-methyl-6-(pyridin-4-ylmethyl)-5H-pyrrolo[3,4-b]pyridine-5,7(6H)-dione] |
| 22 | COc1ccc(OC2CCN(c3nc4c(cc3C)C(=O)NC4=O)CC2)cn1 [Example 297, 2-(4-((6-Methoxypyridin-3-yl)oxy)piperidin-1-yl)-3-methyl-5H-pyrrolo[3,4-b]pyridine-5,7(6H)-dione] |
| 24 | COc1ccc(OC2CCN(c3nc4c(cc3C)C(=O)NC4O)CC2)cn1 (stereo not shown) [Example 298, 7-Hydroxy-2-(4-((6-methoxypyridin-3-yl)oxy)piperidin-1-yl)-3-methyl-6,7-dihydro-5H-pyrrolo[3,4-b]pyridin-5-one] |
| 265 | COc1ccc(OC2CCN(c3nc4c(cc3C)C(=O)N(C(=O)OC(C)(C)C)C4)CC2)cn1 [Example 299, tert-Butyl 2-(4-((6-methoxypyridin-3-yl)oxy)piperidin-1-yl)-3-methyl-5-oxo-5,7-dihydro-6H-pyrrolo[3,4-b]pyridine-6-carboxylate] |
| 286 | COc1ccc(OC2CCN(c3nc4c(cc3C)C(=O)NC43CC3)CC2)cn1 [Example 300] |
| 241 | COc1ccc(OC2CCN(c3nc4c(c(CF)c3C)C(=O)NC4)CC2)cn1 [Example 305, 4-(fluoromethyl)-2-(4-((6-methoxypyridin-3-yl)oxy)piperidin-1-yl)-3-methyl-6,7-dihydro-5H-pyrrolo[3,4-b]pyridin-5-one] |
| 279 | COc1ccc(OC2CCN(c3nc4c(c(C(F)F)c3C)C(=O)NC4)CC2)cn1 [Example 307A, 4-(difluoromethyl)-2-(4-((6-methoxypyridin-3-yl)oxy)piperidin-1-yl)-3-methyl-6,7-dihydro-5H-pyrrolo[3,4-b]pyridin-5-one] |
